This assay addresses T1, Malonyl-CoA decarboxylase, mitochondrial (Homo sapiens, UniProt O95822).
T1 sequence (O95822 whole entry): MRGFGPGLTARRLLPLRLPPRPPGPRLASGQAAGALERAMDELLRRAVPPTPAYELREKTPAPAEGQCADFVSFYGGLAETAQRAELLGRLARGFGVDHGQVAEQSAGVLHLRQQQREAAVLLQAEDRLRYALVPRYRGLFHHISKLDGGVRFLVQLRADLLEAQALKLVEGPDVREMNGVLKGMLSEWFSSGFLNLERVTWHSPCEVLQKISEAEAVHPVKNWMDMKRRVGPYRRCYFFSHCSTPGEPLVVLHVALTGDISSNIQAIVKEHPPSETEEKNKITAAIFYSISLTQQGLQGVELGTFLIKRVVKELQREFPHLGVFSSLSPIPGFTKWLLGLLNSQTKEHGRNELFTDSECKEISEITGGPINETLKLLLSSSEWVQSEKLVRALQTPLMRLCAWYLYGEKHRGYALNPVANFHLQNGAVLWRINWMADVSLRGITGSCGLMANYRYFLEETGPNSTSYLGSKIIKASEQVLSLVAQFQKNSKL

The term IC50 denotes the concentration that inhibits the measured activity by half. A low value points to greater potency in that assay.

As to `CC(C)C(=O)N(CC1CCCO1)c1ncc(C(O)(C(F)(F)F)C(F)(F)F)s1` (stereo unspecified), the IC50 worked out at 1.58 µM.

These data come from ChEMBL document CHEMBL1138101, “Heteroaryl substituted bis-trifluoromethyl carbinols as malonyl-CoA decarboxylase inhibitors” (Bioorg Med Chem Lett, 2006).
